Measurements as given in EP2128158A1, “Heterocyclic cyclopropyl-substituted FXR binding compounds” (Phenex Pharmaceuticals AG, priority 2008, dated 2009).
Where two headings read alike, the source gives them in different places.

How the values were obtained:
[1] = molecular target: T1, human FXR alpha ligand binding domain (Homo sapiens, UniProt Q96RI1); assay: FRET activity assay (ligand mediated FXR-LBD / SRC-1 cofactor peptide interaction, LANCE); format: biochemical
T1 construct: made in house; host or cells: E. coli BL21(DE3), vector pDEST15
T1 sequence (Q96RI1 187-472 isoform Q96RI1-2): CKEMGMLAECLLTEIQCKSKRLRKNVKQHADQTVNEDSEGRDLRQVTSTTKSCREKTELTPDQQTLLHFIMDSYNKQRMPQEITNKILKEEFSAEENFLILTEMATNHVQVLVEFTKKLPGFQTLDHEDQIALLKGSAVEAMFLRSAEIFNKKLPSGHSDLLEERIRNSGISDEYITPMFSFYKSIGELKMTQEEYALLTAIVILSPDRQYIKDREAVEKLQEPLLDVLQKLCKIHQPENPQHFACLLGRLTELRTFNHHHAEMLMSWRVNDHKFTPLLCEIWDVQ
Procedure: Determination of a ligand mediated cofactor peptide interaction to quantify ligand binding to the nuclear receptor FXR was performed as follows: Preparation of human FXR alpha ligand binding domain: The human FXRalpha LBD was expressed in E. coli strain BL21(DE3) as an N-terminally GST tagged fusion protein. The DNA encoding the FXR ligand binding domain was cloned into vector pDEST15 (Invitrogen). Expression was under control of an IPTG inducible T7 promoter. The amino acid boundaries of the ligand binding domain were amino acids 187-472 of Database entry NM_005123 (RefSeq). Expression and purification of the FXR-LBD:
An overnight preculture of a transformed E.coli strain was diluted 1:20 in LB-Ampicillin medium and grown at 30°C to an optical density of OD600=0.4-0.6. Gene expression was then induced by addition of 0.5 mM IPTG. Cells were incubated an additional 6h at 30°C, 180 rpm. Cells were collected by centrifugation (7000 x g, 7 min, room temperature). Per liter of original cell culture, cells were resuspended in 10 ml lysis buffer (50 mM Glucose, 50 mM Tris pH 7.9, 1 mM EDTA and 4 mg/ml lysozyme) and left on ice for 30 min. Cells were then subjected to sonication and cell debris removed via centrifugation (22000 x g, 30 min, 4°C). Per 10 ml of supernatant 0.5 ml prewashed Glutathione 4B sepharose slurry (Qiagen) was added and the suspension kept slowly rotating for 1 h at 4°C. Glutathione 4B sepharose beads were pelleted by centrifugation (2000 g, 15 sec, 4°C) and washed twice in wash buffer (25 mM Tris, 50mM KCl, 4 mM MgCl2 and 1M NaCl). The pellet was resuspended in 3 ml elution buffer per liter of original culture (elution buffer: 20 mM Tris, 60 mM KCI, 5 mM MgCl2 and 80 mM glutathione added immediately prior to use as powder). The suspension was left rotating for 15 min at 4°C, the beads pelleted and eluted again with half the volume of elution buffer than the first time. The eluates were pooled and dialysed overnight in 20 mM Hepes buffer (pH 7.5) containing 60 mM KCI, 5 mM MgCl2 as well as 1 mM dithiothreitol and 10% (v/v) glycerol. The protein was analysed by SDS-Page.
The method measures the ability of putative ligands to modulate the interaction between the purified bacterial expressed FXR ligand binding domain (LBD) and a synthetic biotinylated peptide based on residues 676-700 of SRC-1 (LCD2, 676-700). The sequence of the peptide used was B-[…]-COOH where the N-terminus was biotinylated (B). The ligand binding domain (LBD) of FXR was expressed as fusion protein with GST in BL-21 cells using the vector pDEST15. Cells were lysed by sonication, and the fusion proteins purified over glutathione sepharose (Pharmacia) according to the manufacturers instructions. […] For ease of handling and reduction of background from compound fluorescence LANCE technology makes use of generic fluorophore labels and time resolved detection Assays were done in a final volume of 2 5µl in a 384 well plate, in a Tris-based buffer (20 mM Tris-HCl pH 7,5; 60 mM KCI, 5 mM MgCl2; 35 ng/µl BSA), containing 20-60 ng/well recombinantly expressed FXR-LBD fused to GST, 200-600 nM N-terminally biotinylated peptide, representing SRC1 aminoacids 676-700, 200 ng/well Streptavidin-xIAPC conjugate(Prozyme) and 6-10 ng/well Eu W1024 - antiGST (Perkin Elmer). […] The LANCE signal was detected by a Perkin Elmer VICTOR2VTM Multilabel Counter The results were visualized by plotting the ratio between the emitted light at 665 nm and 615 nm. […]

[2] = molecular target: T2, full length human FXR (Homo sapiens, UniProt Q96RI1); assay: Direct reporter (DR) gene assay in stably transfected HEK293 cells (D2IV3), luciferase; format: cell-based
T2 construct: The full length human FXR (NM_005123) was cloned into pTRexDest30; expressed in transfected cells
T2 sequence (Q96RI1 1-472 isoform Q96RI1-2): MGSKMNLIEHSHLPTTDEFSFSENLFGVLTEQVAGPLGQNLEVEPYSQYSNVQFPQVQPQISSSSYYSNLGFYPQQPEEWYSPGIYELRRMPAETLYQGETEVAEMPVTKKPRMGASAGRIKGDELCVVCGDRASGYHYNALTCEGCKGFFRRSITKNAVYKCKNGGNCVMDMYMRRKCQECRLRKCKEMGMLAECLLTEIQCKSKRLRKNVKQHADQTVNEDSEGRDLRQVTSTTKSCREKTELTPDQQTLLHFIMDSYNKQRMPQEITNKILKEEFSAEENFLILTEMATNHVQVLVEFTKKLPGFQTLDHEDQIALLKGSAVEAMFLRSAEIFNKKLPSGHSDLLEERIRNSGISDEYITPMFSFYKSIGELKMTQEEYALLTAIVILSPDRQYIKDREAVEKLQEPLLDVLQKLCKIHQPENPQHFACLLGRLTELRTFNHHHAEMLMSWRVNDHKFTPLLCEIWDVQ
Description: In the direct reporter gene assay, HEK293 cells, obtained from DSMZ (German Collection of Microorganisms and Cell Cultures, Braunschweig, Germany) were stably transfected with pTRexDest30 (Invitrogen) derivative pTRexDest30-hFXR and pGL2promoter (Promega) derivative pGL2promoter-2xIBABP-RE. The full length human FXR (NM_005123) was cloned into pTRexDest30 according to the manufacturer protocol for the Gateway system (Invitrogen). The FXR response elements cccaGGGTGAaTAACCTcggggctctgtccctccaatcccaGGGTGAaTAACCTcggg were derived from the human IBABP-P promoter (Grober et al. 1999, JBC, 174, pp.29749-29754) and cloned into pGL2promoter. […] For the direct reporter gene assays, D2IV3 cells were grown in MEM with L-Glutamine and Earle's BSS supplemented with 10% fetal bovine serum, 0.1mM nonessential amino acids, 1mM sodium pyruvate, and 100units Penicilin/[…] per ml at 37°C in 5% CO2. Medium and supplements were obtained from Invitrogen. For the assay, 5x10^5 cells were plated per well in 96well plates in 100µl per well minimum essential medium (same composition as above) incubated at 37°C in 5% CO2. The following day the cells were >90% confluence. Compounds were prediluted in MEM and added at different concentrations to the cells with the final DMSO vehicle concentration not exceeding 0.1%. Cells were incubated for additional 16 hours before firefly luciferase activity was measured. All experiments were done in triplicates.

[3] = molecular target: T3, FXR ligand binding domain (Homo sapiens, UniProt Q96RI1); assay: Mammalian one hybrid (M1H) assay, Gal4 promoter driven transactivation in HEK293 cells; format: cell-based; conditions: Gal4-FXR LBD, 16 hours incubation, dual luciferase, read-out: M1H assay EC50 (±sd)
T3 construct: expressed in transfected cells; host or cells: HEK293 (DSMZ), transient transfection, vector pCMV-BD
T3 sequence (Q96RI1 187-472 isoform Q96RI1-2): T1 sequence (Q96RI1 187-472 isoform Q96RI1-2)
Procedure: Determination of a ligand mediated Gal4 promoter driven transactivation to quantify ligand binding mediated activation of FXR was performed as follows: The cDNA part encoding the FXR ligand binding domain was cloned into vector pCMV-BD (Stratagene) as a fusion to the yeast GAL4 DNA binding domain under the control of the CMV promoter. The amino acid boundaries of the ligand binding domain were amino acids 187-472 of Database entry NM_005123 (RefSeq). The plasmid pFR-Luc (Stratagene) was used as the reporter plasmid, containing a synthetic promoter with five tandem repeats of the yeast GAL4 binding sites, driving the expression of the Photinus pyralis (American firefly) luciferase gene as the reporter gene. In order to improve experimental accuracy the plasmid pRL-CMV (Promega) was cotransfected. pRL-CMV contains the constitutive CMV promoter, controlling the expression of the Renilla reniformis luciferase. All Gal4 reporter gene assays were done in HEK293 cells (obtained from DSMZ, Braunschweig, Germany) grown in MEM with L-Glutamine and Earle's BSS supplemented with 10% fetal bovine serum, 0.1 mM nonessential amino acids, 1mM sodium pyruvate, and 100units Penicilin/[…] per ml at 37°C in 5% CO2. Medium and supplements were obtained from Invitrogen. For the assay, 5x10^5 cells were plated per well in 96well plates in 100µl per well MEM without Phenol Red and L-Glutamine and with Earle's BSS supplemented with 10% charcoal/dextran treated FBS (HyClone, South Logan, Utah), 0.1 mM nonessential amino acids, 2 mM glutamine, 1 mM sodium pyruvate, and 100 units Penicilin/[…] per ml, incubated at 37 °C in 5% CO2. The following day the cells were >90% confluence. Medium was removed and cells were transiently transfected using 20µl per well of a OptiMEM - polyethylene-imine-based transfection-reagent (OptiMEM, Invitrogen; Polyethyleneimine, Aldrich Cat No. 40,827-7) including the three plasmids described above. MEM with the same composition as used for plating cells was added 2-4 hours after addition of transfection mixture. Then compound stocks, prediluted in MEM were added (final vehicle concentration not exceeding 0.1 %). Cells were incubated for additional 16 hours before firefly and renilla luciferase activities were measured sequentially in the same cell extract using a Dual-Light-Luciferase-Assay system (Dyer et al., Anal Biochem 2000, (282), 158-161). All experiments were done in triplicates.

[4] = GST-tagged FXR-LBD, biotinylated SRC-1 peptide 676-700; read-out: FRET assay EC50 (±sd)
[5] = 16 hours incubation, firefly luciferase, read-out: DR assay EC50 (±sd)

Row | Structure (SMILES) | EC50 [1, 4] [nM] | EC50 [2, 5] [nM] | EC50 [3] [nM] | EC50 ([1]; read-out: FRET assay EC50 (±sd); GST-tagged FXR-LBD, biotinylated SRC-1 peptide 676-700) [nM] | EC50 ([2]; read-out: DR assay EC50 (±sd), 16 hours incubation, firefly luciferase) [nM]
1 | CC(C)c1onc(-c2c(Cl)cccc2Cl)c1COc1ccc(N(C)Cc2cccc(C(=O)O)c2)c(C(F)(F)F)n1 [Compound C, 3-(((6-((3-(2,6-Dichlorophenyl)-5-isopropylisoxazol-4-yl)methoxy)-2-(trifluoromethyl)pyridin-3-yl)(methyl)amino)methyl)benzoic acid, reference compound] | 11 | 5.7 | 186 | – | –
2 | CN(Cc1ccc(C(=O)O)cc1)c1ccc(OCc2c(-c3c(Cl)cccc3Cl)noc2C2CC2)nc1C(F)(F)F [Example 1, 4-{[(6-((5-Cyclopropyl-3-(2,6-dichlorophenyl)isoxazol-4-yl)methoxy)-2-(trifluoromethyl)pyridin-3-yl)(methyl)amino]methyl}benzoic acid] | – | – | 56 | 8.4 | 6.4
3 | CC(C)c1onc(-c2c(Cl)cccc2Cl)c1COc1ccc(N(C)Cc2ccc(C(=O)O)cc2)c(C(F)(F)F)n1 [Compound B, 4-(((6-((3-(2,6-Dichlorophenyl)-5-isopropylisoxazol-4-yl)methoxy)-2-(trifluoromethyl)pyridin-3-yl)(methyl)amino)methyl)benzoic acid, reference compound] | 17 | 13 | 95 | – | –

More lines, main results first:

Row | EC50 [1, 4] [nM] | EC50 [2, 5] [nM] | EC50 [3] [nM] | Structure (SMILES) | EC50 ([1]; read-out: FRET assay EC50 (±sd); GST-tagged FXR-LBD, biotinylated SRC-1 peptide 676-700) [nM] | EC50 ([2]; read-out: DR assay EC50 (±sd), 16 hours incubation, firefly luciferase) [nM]
4 | 11.5 | 6 | 55 | Cc1cc(CN(C)c2ccc(OCc3c(-c4c(Cl)cccc4Cl)noc3C3CC3)nc2C(F)(F)F)cc(C)c1C(=O)O [Example 3, 4-{[(6-((5-Cyclopropyl-3-(2,6-dichlorophenyl)isoxazol-4-yl)methoxy)-2-(trifluoromethyl)pyridin-3-yl)(methyl)amino]methyl}-2,6-dimethylbenzoic acid] | – | –
5 | 7.7 | 6 | 40 | Cc1cc(CN(C)c2ccc(OCc3c(-c4c(Cl)cccc4Cl)noc3C3CC3)nc2C(F)(F)F)ccc1C(=O)O [Example 2, 4-{[(6-((5-Cyclopropyl-3-(2,6-dichlorophenyl)isoxazol-4-yl)methoxy)-2-(trifluoromethyl)pyridin-3-yl)(methyl)amino]methyl}-2-methylbenzoic acid] | – | –
